Laboratory results from patent publication US20250236629A1, “MEDIUM- OR MACRO-CYCLIC BENZYL-SUBSTITUTED HETEROCYCLE DERIVATIVES AND RELATED USES” (CENTESSA PHARMACEUTICALS (UK) LIMITED, priority 2022, published 2025).

Biological target: T1, human orexin type 2 receptor (hOX2R) (Homo sapiens, UniProt O43614)
T1 construct: the Orexin receptor cDNA was inserted into pcDNA3.1(+) plasmid vector; expressed in transfected cells
T1 sequence (O43614 1-444): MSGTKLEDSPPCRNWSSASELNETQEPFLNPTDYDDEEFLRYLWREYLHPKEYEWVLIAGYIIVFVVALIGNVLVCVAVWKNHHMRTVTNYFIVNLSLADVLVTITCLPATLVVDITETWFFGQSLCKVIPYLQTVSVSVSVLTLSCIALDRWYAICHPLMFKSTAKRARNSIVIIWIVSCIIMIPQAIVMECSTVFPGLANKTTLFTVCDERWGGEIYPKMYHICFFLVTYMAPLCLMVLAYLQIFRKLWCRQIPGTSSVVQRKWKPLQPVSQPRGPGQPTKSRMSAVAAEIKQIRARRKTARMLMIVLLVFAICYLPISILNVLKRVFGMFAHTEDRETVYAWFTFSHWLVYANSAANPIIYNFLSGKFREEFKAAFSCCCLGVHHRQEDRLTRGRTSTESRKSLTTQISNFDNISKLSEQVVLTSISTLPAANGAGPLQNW
Assay: Orexin type 2 receptor agonist activity, intracellular Ca2+ (FLIPR TETRA) in CHO cells
Type: cell-based
Settings: CHO cells expressing hOX2R, Ca2+ fluorescence area, 100% = 10 nM human orexin A; for EC50: read-out: hOx2 pEC50 (converted)
Procedure: Stable cell line generation. Obtainment of cells stably expressing either human orexin type 2 or human orexin type 1 receptor: to obtain a stable cell line the Orexin receptor cDNA was inserted into pcDNA3.1(+) plasmid vector and clones identified by G418 drug resistance selection. […] A single clone for OX2R—CHO and OX1R—CHO were grown in bulk and frozen to generate a cell bank for routine screening.
Measurement of orexin type 2 receptor agonist activity. Chinese hamster ovary (CHO) cells expressing human orexin type 2 receptor (hOX2R) or human orexin type 1 receptor (hOX1R) were seeded in each well of 384 well black clear bottom plates (BD Flacon) at 10,000 cells per well and cultured for 24 hr in an Ham's F12 (Gibco) medium containing 10% fetal calf serum (Sigma Aldrich) under the conditions of 37° C., 5% CO2. After removal of the medium, 50 μl of assay buffer 1 (0.1% bovine serum albumin (Sigma Aldrich), 20 mM HEPES (Molecular Dimensions), […] probenecid (Sigma Aldrich), 1× Calcium 5 dye (Molecular Devices) in Hank's balanced salt solution (Invitrogen)) was added, and the cells were incubated for 60 min under the conditions of 37° C., 5% CO2. A test compound was dissolved in dimethyl sulfoxide (Sigma Aldrich) to 10 mM, and then diluted with assay buffer 2 (20 mM HEPES, Hank's balanced salt solution, 0.1% bovine serum albumin). For the reaction, a test compound solution (10 μl) was added using Fluorescent Imaging Plate Reader TETRA (FLIPR TETRA: manufactured by Molecular Devices), a fluorescence value (excitation wavelength 488 nm, measurement wavelength 570 nm) of each well was measured every one second for 2 min, and the agonist activity was determined using the area of the fluorescence value as an indicator of intracellular Ca^2+ concentration. The agonist activity of the test compound was calculated assuming that the fluorescence value of the well added with only the dilution buffer was 0% and the fluorescence value of the well added with 10 nM human orexin A (Tocris) buffer was 100%.
Values of hOx2 pEC50 in Table B are presented in ranges, in which 6.0≤“+”<7.0, 7.0≤“++”<8.0, 8.0≤“+++”<9.0, and 9.0≤“++++”<10.4.

O=C1CCOc2ccccc2-c2cccc(c2F)C[C@H]2[C@@H](NS(=O)(=O)C3(F)CC3)CCCN12 [Example 36, 1-fluoro-N-((4^2S,4^3S)-2^2-fluoro-5-oxo-8-oxa-4(2,1)-piperidina-1(1,2),2(1,3)-dibenzenacyclooctaphane-4^3-yl)cyclopropane-1-sulfonamide]
EC50: 1 to 10 nM

C[C@H]1CN2C(=O)N(C)CCOc3ccccc3-c3cccc(c3F)C[C@H]2[C@H]1NS(=O)(=O)CF [Example 2, 1-fluoro-N-((4^2S,4^3S,4^4S)-2^2-fluoro-4^4,6-dimethyl-5-oxo-9-oxa-6-aza-4(2,1)-pyrrolidina-1(1,2),2(1,3)-dibenzenacyclononaphane-4^3-yl)methanesulfonamide]
EC50: 10 to 100 nM

CN1CCOc2c(F)cccc2-c2cccc(c2F)C[C@H]2[C@@H](NS(=O)(=O)CF)C3(CC3)CN2C1=O [Example 8, N-((2′S,3′S)-2′,3′-difluoro-6′-methyl-5′-oxospiro[cyclopropane-1,4′-9-oxa-6-aza-4(2,1)-pyrrolidina-1(1,2),2(1,3)-dibenzenacyclononaphan]-3′-yl)-1-fluoromethanesulfonamide]
EC50: 0.0398 to 1 nM

CN1CCOc2c(F)cc(F)cc2-c2cccc(c2F)C[C@H]2[C@@H](NS(=O)(=O)C(F)F)C3(CC3)CN2C1=O [Example 39, 1,1-difluoro-N-((2′S,3′S)-2′,3′,5′-trifluoro-6′-methyl-5′-oxospiro[cyclopropane-1,4′-9-oxa-6-aza-4(2,1)-pyrrolidina-1(1,2),2(1,3)-dibenzenacyclononaphan]-3′-yl)methanesulfonamide]
EC50: 1 to 10 nM

CCS(=O)(=O)N[C@H]1[C@@H](F)CN2C(=O)N(C)CCOc3c(F)cccc3-c3cccc(c3F)C[C@@H]12 [Example 18, N-((4^2S,4^3R,4^4S)-1^3,2^2,4^4-trifluoro-6-methyl-5-oxo-9-oxa-6-aza-4(2,1)-pyrrolidina-1(1,2),2(1,3)-dibenzenacyclononaphane-4^3-yl)ethanesulfonamide]
EC50: 1 to 10 nM

CCS(=O)(=O)N[C@@H]1[C@@H]2Cc3cccc(c3F)-c3cccc(F)c3OCCN(C)C(=O)N2CC12CC2 [Example 9, N-((2′S,3′S)-2′,3′-difluoro-6′-methyl-5′-oxospiro[cyclopropane-1,4′-9-oxa-6-aza-4(2,1)-pyrrolidina-1(1,2),2(1,3)-dibenzenacyclononaphan]-3′-yl)ethanesulfonamide]
EC50: 1 to 10 nM

CC(C)S(=O)(=O)N[C@H]1CCCN2C(=O)CCOc3ccccc3-c3cccc(c3F)C[C@@H]12 [Example 3, N-((4^2S,4^3S)-22-fluoro-5-oxo-8-oxa-4(2,1)-piperidina-1(1,2),2(1,3)-dibenzenacyclooctaphane-4^3-yl)propane-2-sulfonamide]
EC50: 0.0398 to 1 nM

O=C1CCOc2ccccc2-c2cccc(c2)C[C@H]2[C@@H](NS(=O)(=O)C3(F)CC3)[C@@H](F)CCN12 [Example 45, 1-fluoro-N-((4^2S,4^3R,4^4S)-4^4-fluoro-5-oxo-8-oxa-4 (2,1)-piperidina-1 (1,2),2 (1,3)-dibenzenacyclooctaphane-4^3-yl)cyclopropane-1-sulfonamide]
EC50: 1 to 10 nM

N-((2′S,3′S)-3′-fluoro-6′-methyl-5′-oxospiro[cyclopropane-1,4′-9-oxa-6-aza-4(2,1)-pyrrolidina-1(1,2),2(1,3)-dibenzenacyclononaphan]-3′-yl)ethanesulfonamide [Example 19]
hOx2 pEC50: +++ (8.0≤“+++”<9.0)

CCS(=O)(=O)N[C@@H]1[C@@H]2Cc3cccc(c3)-c3ccccc3OCCN(C)C(=O)N2CC1(F)F [Example 23, N-((4^2S,4^3R)-4^4,4^4-difluoro-6-methyl-5-oxo-9-oxa-6-aza-4(2,1)-pyrrolidina-1(1,2),2(1,3)-dibenzenacyclononaphane-4^3-yl)ethanesulfonamide]
EC50: 1 to 10 nM

CCN1CCOc2ccccc2-c2cccc(c2)C[C@H]2[C@@H](NS(=O)(=O)C(F)F)C3(CC3)CN2C1=O [Example 10, N-((2′S,3′S)-6′-ethyl-5′-oxospiro[cyclopropane-1,4′-9-oxa-6-aza-4(2,1)-pyrrolidina-1(1,2),2(1,3)-dibenzenacyclononaphan]-3′-yl)-1,1-difluoromethanesulfonamide]
EC50: 1 to 10 nM

CCS(=O)(=O)N[C@H]1[C@@H](F)CN2C(=O)N(C)CCOc3ccccc3-c3cccc(c3F)C[C@@H]12 [Example 17, N-((4^2S,4^3R,4^4S)-2^2,4^4-difluoro-6-methyl-5-oxo-9-oxa-6-aza-4(2,1)-pyrrolidina-1(1,2),2(1,3)-dibenzenacyclononaphane-4^3-yl)ethanesulfonamide]
EC50: 1 to 10 nM

CCS(=O)(=O)N[C@H]1[C@@H](F)CN2C(=O)CCOc3ccccc3-c3cccc(c3F)C[C@@H]12 [Example 29, N-((4^2S,4^3R,4^4S)-2^2,4^4-difluoro-5-oxo-8-oxa-4(2,1)-pyrrolidina-1(1,2),2(1,3)-dibenzenacyclooctaphane-4^3-yl)ethanesulfonamide]
EC50: 1 to 10 nM

CN1CCOc2ccccc2-c2cccc(c2F)C[C@H]2[C@@H](NS(=O)(=O)CF)CCCN2C1=O [Example 32, 1-fluoro-N-((4^2S,4^3S)-2^2-fluoro-6-methyl-5-oxo-9-oxa-6-aza-4(2,1)-piperidina-1(1,2),2(1,3)-dibenzenacyclononaphane-4^3-yl)methanesulfonamide]
EC50: 10 to 100 nM

CC(C)S(=O)(=O)N[C@H]1[C@@H](F)CN2C(=O)N(C)CCOc3ccccc3-c3cccc(c3F)C[C@@H]12 [Example 35, N-((4^2S,4^3R,4^4S)-2^2,4^4-difluoro-6-methyl-5-oxo-9-oxa-6-aza-4(2,1)-pyrrolidina-1(1,2),2(1,3)-dibenzenacyclononaphane-4^3-yl)propane-2-sulfonamide]
EC50: 1 to 10 nM

O=C1CCOc2ccccc2-c2cccc(c2)C[C@H]2[C@@H](NS(=O)(=O)C(F)F)CCCN12 [Example 26, 1,1-difluoro-N-((4^2S,4^3S)-5-oxo-8-oxa-4(2,1)-piperidina-1(1,2),2(1,3)-dibenzenacyclooctaphane-4^3-yl)methanesulfonamide]
EC50: 1 to 10 nM

O=C1N(CC(F)F)CCOc2c(F)cccc2-c2cccc(c2)C[C@H]2[C@@H](NS(=O)(=O)CF)C3(CC3)CN12 [Example 22, N-((2′S,3′S)-6′-(2,2-difluoro-ethyl)-3′-fluoro-5′-oxospiro[cyclopropane-1,4′-9-oxa-6-aza-4(2,1)-pyrrolidina-1(1,2),2(1,3)-dibenzenacyclononaphan]-3′-yl)-1-fluoromethanesulfonamide]
EC50: 1 to 10 nM

CCS(=O)(=O)N[C@H]1CCCN2C(=O)CCOc3ccccc3-c3cccc(c3F)C[C@@H]12 [Example 27, N-((4^2S,4^3S)-22-fluoro-5-oxo-8-oxa-4(2,1)-piperidina-1(1,2),2(1,3)-dibenzenacyclooctaphane-4^3-yl)ethanesulfonamide]
EC50: 1 to 10 nM

CC(C)(F)S(=O)(=O)N[C@H]1CCCN2C(=O)CCOc3ccccc3-c3cccc(c3F)C[C@@H]12 [Example 33, 2-fluoro-N-((4^2S,4^3S)-2^2-fluoro-5-oxo-8-oxa-4(2,1)-piperidina-1(1,2),2(1,3)-dibenzenacyclooctaphane-4^3-yl)propane-2-sulfonamide]
EC50: 1 to 10 nM

CN1CCOc2ccccc2-c2cccc(c2F)C[C@H]2[C@@H](NS(=O)(=O)C(F)F)C3(CC3)CN2C1=O [Example 4, 1,1-difluoro-N-((2′S,3′S)-2′-fluoro-6′-methyl-5′-oxospiro[cyclopropane-1,4′-9-oxa-6-aza-4(2,1)-pyrrolidina-1(1,2),2(1,3)-dibenzenacyclononaphan]-3′-yl)methanesulfonamide]
EC50: 1 to 10 nM
